In the supplement of paper PMC12533247:

How the values were obtained:
[1] = test system: HSV-1 K26-GFP infected primary human skin cells; assay: % change of HSV-1 GFP signal vs untreated infected cells; higher = less antiviral inhibition; conditions: cell type: primary dermal fibroblasts, time (h post infection): 48
Method: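 2D primary donor-derived dermal fibroblasts infected with GFP-HSV-1 K26 at MOI 1, treated 1 h later with compound dilutions and read at 48 hpi on IncuCyte. GFP integrated intensity is normalised to mock-infected and untreated infected wells (% change; -100 = full inhibition).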

[2] = test system: HSV-1 K26-GFP infected primary human skin cells; assay: as above
Method: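 2D primary donor-derived keratinocytes (read at 20 hpi) and donor-matched dermal fibroblasts (read at 48 hpi) infected with GFP-HSV-1 K26 at MOI 1 and treated 1 h later with compound dilutions. IncuCyte GFP integrated intensity is normalised by subtracting mock-infected wells and dividing by untreated infected wells, shown as % change (-100 = full inhibition).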

Nc1nc2c(ncn2COCCO)c(=O)[nH]1 [Acyclovir]
% change of HSV-1 GFP signal [%], [1]
Conditions | 0.01 µM | 0.03 µM | 0.091 µM | 0.274 µM | 0.823 µM | 2.469 µM | 7.407 µM | 22.222 µM | 66.667 µM | 200 µM
donor: 3 | 11.2 | -4.39 | -24.2 | -53.8 | -81.8 | -96 | -98.87 | -99.69 | -99.875 | -99.88
donor: 4 | -5.12 | -10.6 | -29.8 | -54.4 | -78.2 | -94 | -98.8 | -99.862 | -99.93 | -99.998

% change of HSV-1 GFP signal [%], [2]
Conditions | 0.01 µM | 0.03 µM | 0.091 µM | 0.274 µM | 0.823 µM | 2.469 µM | 7.407 µM | 22.222 µM | 66.667 µM | 200 µM
cell type: primary dermal fibroblasts, donor: 5, time (h post infection): 48 | 8.25 | 5.48 | -8.89 | -35.4 | -64.4 | -91.6 | -98.36 | -99.642 | -99.73 | -99.952
cell type: primary keratinocytes, donor: 3, time (h post infection): 20 | 4.06 | 2.08 | 5.2 | 11.3 | 10.1 | 10.8 | 5.3 | -13.4 | -42.3 | -69.1
cell type: primary keratinocytes, donor: 4, time (h post infection): 20 | 3.4 | -0.143 | 2.05 | 3.28 | -0.371 | -2.35 | -4.48 | -27.5 | -53.6 | -80.5
cell type: primary keratinocytes, donor: 5, time (h post infection): 20 | 3.43 | 1.77 | 4.64 | 3.64 | 4.14 | 5.76 | -4.49 | -17.7 | -45.6 | -75.1
